Measurements as given in the CheMixHub viscosity set.
Where “and” joins values, the source holds several entries; their conditions need not be identical. Identical values can stand only once.

Test: xn = mol fraction of the nth substance listed

COCCO + O
viscosity
Settings | 101 kPa | 101.33 kPa
298.15 K, x1 = 0.01 | 0.9988 mPa·s | –
298.15 K, x1 = 0.025 | 1.169 mPa·s | –
298.15 K, x1 = 0.05 | 1.464 mPa·s | –
298.15 K, x1 = 0.056 | 1.516 mPa·s | –
298.15 K, x1 = 0.075 | 1.755 mPa·s | –
298.15 K, x1 = 0.0834 | – | 1.894 mPa·s
298.15 K, x1 = 0.1 | 2.023 mPa·s | –
298.15 K, x1 = 0.136 | 2.365 mPa·s | –
298.15 K, x1 = 0.1366 | – | 2.365 mPa·s
298.15 K, x1 = 0.15 | 2.475 mPa·s | 2.442 mPa·s
298.15 K, x1 = 0.2 | 2.766 mPa·s | –
298.15 K, x1 = 0.2131 | – | 2.768 mPa·s
298.15 K, x1 = 0.25 | 2.908 mPa·s and 2.871 mPa·s and 2.871 mPa·s | –
298.15 K, x1 = 0.2601 | – | 2.876 mPa·s
298.15 K, x1 = 0.262 | 2.885 mPa·s | –
298.15 K, x1 = 0.3 | 2.942 mPa·s | –
298.15 K, x1 = 0.3005 | – | 2.904 mPa·s
298.15 K, x1 = 0.3558 | – | 2.886 mPa·s
298.15 K, x1 = 0.4 | 2.833 mPa·s | –
298.15 K, x1 = 0.4352 | – | 2.751 mPa·s
298.15 K, x1 = 0.48 | 2.582 mPa·s and 2.582 mPa·s | –
298.15 K, x1 = 0.486 | 2.575 mPa·s | –
298.15 K, x1 = 0.5 | 2.606 mPa·s | –
298.15 K, x1 = 0.5001 | – | 2.616 mPa·s
298.15 K, x1 = 0.5219 | – | 2.571 mPa·s
298.15 K, x1 = 0.6 | 2.35 mPa·s | –
298.15 K, x1 = 0.6161 | – | 2.367 mPa·s
298.15 K, x1 = 0.6806 | – | 2.232 mPa·s
298.15 K, x1 = 0.7 | 2.102 mPa·s | –
298.15 K, x1 = 0.72 | 2.115 mPa·s and 2.115 mPa·s | –
298.15 K, x1 = 0.7514 | – | 2.076 mPa·s
298.15 K, x1 = 0.8 | 1.874 mPa·s | –
298.15 K, x1 = 0.8181 | – | 1.93 mPa·s
298.15 K, x1 = 0.85 | 1.772 mPa·s | –
298.15 K, x1 = 0.8844 | – | 1.786 mPa·s
298.15 K, x1 = 0.9 | 1.681 mPa·s | –
298.15 K, x1 = 0.95 | 1.606 mPa·s | –
298.15 K, x2 = 0.1049 | – | 1.671 mPa·s
298.15 K, x2 = 0.2062 | – | 1.86 mPa·s
298.15 K, x2 = 0.3055 | – | 2.064 mPa·s
298.15 K, x2 = 0.3977 | – | 2.288 mPa·s
298.15 K, x2 = 0.4976 | – | 2.538 mPa·s
298.15 K, x2 = 0.6002 | – | 2.755 mPa·s
298.15 K, x2 = 0.6964 | – | 2.866 mPa·s
298.15 K, x2 = 0.8004 | – | 2.68 mPa·s
298.15 K, x2 = 0.9005 | – | 1.989 mPa·s
308.15 K, x1 = 0.0461 | – | 1.143 mPa·s
308.15 K, x1 = 0.0623 | – | 1.242 mPa·s
308.15 K, x1 = 0.0881 | – | 1.52 mPa·s
308.15 K, x1 = 0.1239 | – | 1.829 mPa·s
308.15 K, x1 = 0.16 | – | 1.803 mPa·s
308.15 K, x1 = 0.1871 | – | 2.124 mPa·s
308.15 K, x1 = 0.2131 | – | 2.067 mPa·s
308.15 K, x1 = 0.2442 | – | 2.284 mPa·s
308.15 K, x1 = 0.25 | 2.142 mPa·s and 2.142 mPa·s | –
308.15 K, x1 = 0.2601 | – | 2.149 mPa·s
308.15 K, x1 = 0.2938 | – | 2.341 mPa·s
308.15 K, x1 = 0.3005 | – | 2.164 mPa·s
308.15 K, x1 = 0.326 | – | 2.342 mPa·s
308.15 K, x1 = 0.3558 | – | 2.15 mPa·s
308.15 K, x1 = 0.3709 | – | 2.319 mPa·s
308.15 K, x1 = 0.4014 | – | 2.284 mPa·s
308.15 K, x1 = 0.4352 | – | 2.077 mPa·s
308.15 K, x1 = 0.4504 | – | 2.217 mPa·s
308.15 K, x1 = 0.5001 | – | 2.001 mPa·s
308.15 K, x1 = 0.5219 | – | 1.96 mPa·s
308.15 K, x1 = 0.6161 | – | 1.818 mPa·s
308.15 K, x1 = 0.6806 | – | 1.726 mPa·s
308.15 K, x1 = 0.72 | 1.68 mPa·s and 1.68 mPa·s | –
308.15 K, x1 = 0.7514 | – | 1.624 mPa·s
308.15 K, x1 = 0.8844 | – | 1.443 mPa·s
308.15 K, x2 = 0.1034 | – | 1.452 mPa·s
308.15 K, x2 = 0.1923 | – | 1.477 mPa·s
308.15 K, x2 = 0.2978 | – | 1.629 mPa·s
308.15 K, x2 = 0.3944 | – | 1.768 mPa·s
308.15 K, x2 = 0.5527 | – | 1.918 mPa·s
308.15 K, x2 = 0.7415 | – | 2.002 mPa·s
308.15 K, x2 = 0.8372 | – | 1.768 mPa·s
308.15 K, x2 = 0.956 | – | 1.085 mPa·s
313.15 K, x1 = 0.25 | 1.842 mPa·s and 1.842 mPa·s | –
313.15 K, x1 = 0.48 | 1.805 mPa·s and 1.805 mPa·s | –
313.15 K, x1 = 0.72 | 1.517 mPa·s and 1.517 mPa·s | –
318.15 K, x1 = 0.0251 | – | 0.737 mPa·s
318.15 K, x1 = 0.0623 | – | 0.95 mPa·s
318.15 K, x1 = 0.15 | – | 1.325 mPa·s
318.15 K, x1 = 0.2131 | – | 1.505 mPa·s
318.15 K, x1 = 0.25 | 1.588 mPa·s and 1.588 mPa·s | –
318.15 K, x1 = 0.2601 | – | 1.585 mPa·s
318.15 K, x1 = 0.3005 | – | 1.626 mPa·s
318.15 K, x1 = 0.3558 | – | 1.655 mPa·s
318.15 K, x1 = 0.4352 | – | 1.653 mPa·s
318.15 K, x1 = 0.48 | 1.627 mPa·s and 1.627 mPa·s | –
318.15 K, x1 = 0.5001 | – | 1.615 mPa·s
318.15 K, x1 = 0.5219 | – | 1.602 mPa·s
318.15 K, x1 = 0.6161 | – | 1.513 mPa·s
318.15 K, x1 = 0.6806 | – | 1.444 mPa·s
318.15 K, x1 = 0.72 | 1.389 mPa·s and 1.389 mPa·s | –
318.15 K, x1 = 0.7514 | – | 1.36 mPa·s
318.15 K, x1 = 0.8181 | – | 1.281 mPa·s
318.15 K, x1 = 0.8844 | – | 1.191 mPa·s
323.15 K, x1 = 0.48 | 1.493 mPa·s and 1.493 mPa·s | –
323.15 K, x1 = 0.72 | 1.294 mPa·s and 1.294 mPa·s | –
